The record followed here is patent US20220054438A1, “KCHIP2 MODULATOR COMPOUNDS AND THEIR USE FOR THE TREATMENT OF CARDIOVASCULAR DISEASES” (CONSEJO SUPERIOR DE INVESTIGACIONES CIENTÍFICAS (CSIC), priority 2018, published 2022).

“Also recorded” adds a separate entry of the source.

The target of test [1] is T1, KV4.3+KChIP2 channels (Homo sapiens, UniProt Q9NS61).
T1 construct: expressed in transfected cells; host or cells: CHO cells (transient transfection)
T1 sequence (Q9NS61 1-270): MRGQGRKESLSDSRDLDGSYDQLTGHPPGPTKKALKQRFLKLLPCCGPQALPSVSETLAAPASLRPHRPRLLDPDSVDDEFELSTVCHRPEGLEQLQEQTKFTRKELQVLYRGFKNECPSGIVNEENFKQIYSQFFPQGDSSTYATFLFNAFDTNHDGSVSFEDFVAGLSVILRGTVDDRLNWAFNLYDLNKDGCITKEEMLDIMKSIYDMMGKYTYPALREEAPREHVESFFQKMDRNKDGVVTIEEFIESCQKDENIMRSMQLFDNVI
T1 sequence (Q9UK17 1-655 partner): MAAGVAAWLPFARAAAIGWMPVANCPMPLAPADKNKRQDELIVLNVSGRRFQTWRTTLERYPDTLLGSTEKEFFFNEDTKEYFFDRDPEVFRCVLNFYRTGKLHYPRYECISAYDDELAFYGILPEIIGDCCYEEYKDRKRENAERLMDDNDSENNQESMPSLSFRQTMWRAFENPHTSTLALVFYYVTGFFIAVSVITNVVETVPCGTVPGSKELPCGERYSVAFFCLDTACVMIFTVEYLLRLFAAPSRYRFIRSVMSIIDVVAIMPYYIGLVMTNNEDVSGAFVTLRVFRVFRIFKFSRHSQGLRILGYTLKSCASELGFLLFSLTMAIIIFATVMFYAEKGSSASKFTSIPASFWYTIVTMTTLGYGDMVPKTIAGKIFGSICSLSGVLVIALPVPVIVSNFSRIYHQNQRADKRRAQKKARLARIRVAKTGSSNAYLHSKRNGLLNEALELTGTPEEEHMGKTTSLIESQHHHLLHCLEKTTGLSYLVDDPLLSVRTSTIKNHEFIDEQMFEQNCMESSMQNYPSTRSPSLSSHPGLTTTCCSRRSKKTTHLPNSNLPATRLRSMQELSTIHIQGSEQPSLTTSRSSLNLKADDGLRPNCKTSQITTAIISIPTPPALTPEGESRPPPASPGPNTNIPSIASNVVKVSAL
Put plainly: Whole-cell patch-clamp of KV4.3+KChIP2 currents in transiently transfected CHO cells. Format: cell-based. The text has this:
(§1) Example 2. Tests of the effects of the compounds on the KV4.3/KChIP2 and KV4.3/KChIP2/DPP6 currents generated after the activation of KV4.3/KChIP2 and KV4.3/KChIP2/DPP6 channels expressed in CHO cells.
(§2) The compounds synthesized according to this invention have been evaluated in vitro in voltage clamp tests in CHO cells transiently transfected with cDNA encoding KV4.3 alone or KV4.3 in the presence of KChIP2 (KV4.3+KChIP2) and DPP6 (KV4.3+KChIP2+DPP6) using the whole-cell configuration of the patch-clamp technique. Some of the compounds activate the current generated by the activation of KV4.3+KChIP2 channels.
(In general: The patch-clamp technique gives a direct electrical read-out from membranes.)

For test [2], the target named is T2, KV4.3+KChIP2+DPP6 channels (Homo sapiens, UniProt Q9NS61).
T2 construct: expressed in transfected cells; host or cells: CHO cells (transient transfection)
T2 sequence (P42658 whole entry partner, one chain of several): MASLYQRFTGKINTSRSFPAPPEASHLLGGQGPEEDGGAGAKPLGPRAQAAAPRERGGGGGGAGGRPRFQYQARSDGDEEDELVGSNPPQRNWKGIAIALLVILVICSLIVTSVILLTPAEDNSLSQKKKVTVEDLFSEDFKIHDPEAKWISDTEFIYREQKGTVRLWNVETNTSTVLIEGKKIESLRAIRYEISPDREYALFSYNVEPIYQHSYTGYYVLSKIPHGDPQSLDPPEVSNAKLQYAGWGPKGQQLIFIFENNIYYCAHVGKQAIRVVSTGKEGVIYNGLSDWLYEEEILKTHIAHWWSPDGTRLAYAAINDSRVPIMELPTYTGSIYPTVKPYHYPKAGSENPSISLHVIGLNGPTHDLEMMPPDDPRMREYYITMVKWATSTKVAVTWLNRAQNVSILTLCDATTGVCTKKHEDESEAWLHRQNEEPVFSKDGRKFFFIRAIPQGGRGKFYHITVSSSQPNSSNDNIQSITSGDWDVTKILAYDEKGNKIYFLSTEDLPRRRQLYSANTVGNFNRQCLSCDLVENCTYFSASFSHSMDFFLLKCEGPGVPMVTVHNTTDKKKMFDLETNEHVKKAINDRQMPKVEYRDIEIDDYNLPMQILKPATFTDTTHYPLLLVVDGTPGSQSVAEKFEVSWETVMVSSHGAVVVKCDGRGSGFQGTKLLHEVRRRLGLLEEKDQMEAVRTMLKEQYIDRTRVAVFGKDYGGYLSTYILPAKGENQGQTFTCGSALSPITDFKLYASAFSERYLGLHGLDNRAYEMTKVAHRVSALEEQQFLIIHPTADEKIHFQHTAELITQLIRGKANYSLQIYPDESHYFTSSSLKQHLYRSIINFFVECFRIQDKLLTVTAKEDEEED
Put plainly: Whole-cell patch-clamp of KV4.3+KChIP2+DPP6 currents in transiently transfected CHO cells. The format is cell-based.
Text: as §1, §2

Test [3] has as its system K+ current in ventricular cardiomyocytes. Put plainly: Perforated patch-clamp of K+ current in mouse ventricular cardiomyocytes. The format is cell-based, C57BL/6J mice. The settings on record: 3 μM perfused for 3-4 minutes, +60 mV. From the text:
Example 3. Effects of the Compounds on the K^+ Current Recorded in Mouse Ventricular Cardiomyocytes
The cardiomyocytes were obtained after enzyme dissociation with collagenase.

Regarding `O=C(Cc1cccc(Oc2ccccc2)c1)Nc1cc2ccccc2cc1C(=O)O` [Compound 22bis, 3-[2-(3-phenoxyphenyl)acetylamino]-2-naphthoic acid], the “charge measured as the area under the current record” value in test [1] (3 μM, CHO cells, depolarizing pulses at +60 mV) is reported as “increases the charge; also recorded: produced an increase in the charge”. The “maximum peak of the current” value in test [1] (3 μM, FIG. 1A, CHO cells) is recorded as “lowers the maximum peak”. In test [1] (3 μM, FIG. 3), the “charge-voltage relationship (Q-V)” value is “increase in the charge of the KV4.3/KChIP2 and KV4.3/KChIP2/DPP6 current which turned out to be significant at potentials positive than 0 mV”. Moreover, in test [1] (all concentrations tested except 0.01 μM, FIG. 2, +60 mV), the “decrease in the peak versus decrease in the charge, concentration dependence” value is on record as “decrease in the peak that was significantly greater than that of the charge”. Also, the current activating effect result in test [2] (3 μM, FIG. 1B, compared with KV4.3+KChIP2) is listed as “more pronounced in the presence of the DPP6 subunit”. Besides, the “charge-voltage relationship (Q-V)” value in test [2] (3 μM, FIG. 3) was “increase in the charge of the KV4.3/KChIP2 and KV4.3/KChIP2/DPP6 current which turned out to be significant at potentials positive than 0 mV; also recorded: greater than in KV4.3/KChIP2 channels”. Besides, the “charge, concentration dependence” value in test [2] (FIG. 2B, +60 mV, compared with KV4.3/KChIP2) is listed as “increase in the charge more pronounced”. Besides, in test [3], the “decay (inactivation) time constant of the K+ current” value is recorded as “without modifying the decay time constant” and the “maximum peak K+ current” value is on record as “significant increase in the maximum peak current”.
